From ChEMBL document CHEMBL2385058, “Progress and developments in tau aggregation inhibitors for Alzheimer disease” (J Med Chem, 2013)

Columns and labels:
[1] = Tmax in amyotrophic lateral sclerosis patient; details: human, in vivo
[2] = biological target: T1, Microtubule-associated protein tau (Homo sapiens, UniProt P10636); assay: Inhibition of tau protein aggregation (unknown origin)
[3] = Inhibition of K18 P301L mutant (unknown origin) fibril formation after 1 hr by thioflavin T fluorescence assay; design: species or system Homo sapiens
[4] = Inhibition of tau K18 aggregation in mouse N2A cells; assay type: cell-based
Homo sapiens [5] = organism: Homo sapiens; assay: Induction of tau K19 (unknown origin) disaggregation assessed as decrease in paired helical filament formation measured disassembly-inducing half maxima after 10 days by thioflavin S fluorescence assay in presence of heparin
[6] = Inhibition of tau K19 (unknown origin) aggregation assessed as inhibition of paired helical filament formation after 10 days by thioflavin S fluorescence assay in presence of heparin; design: species or system Homo sapiens
[7] = biological target: T1, Microtubule-associated protein tau; assay: Inhibition of human recombinant brain tau protein (412 amino acid residues) filament assembly expressed in Escherichia coli BL21(DE3) by electron microscopic analysis in presence of heparin
[8] = Inhibition of […] human tau K18 aggregation
[9] = biological target: T1, Microtubule-associated protein tau; assay: Inhibition of tau protein aggregation (unknown origin) at 5:1 compound to protein concentration by Western blot analysis
[10] = biological target: Amyloid-beta precursor protein (Homo sapiens, UniProt P05067); assay: Inhibition of amyloid beta (1 to 40) (unknown origin) fibril formation after 18 hrs by DELFIA
[11] = biological target: T1, Microtubule-associated protein tau; assay: Induction of tau protein (unknown origin) disaggregation assessed as disassembly-inducing half maxima
Homo sapiens [12] = organism: Homo sapiens; assay: Selectivity ratio of IC50 for full length human tau40 aggregation to IC50 for tau K19 aggregation (unknown origin)
[13] = Inhibition of full length human tau40 aggregation
[14] = Inhibition of tau K19 aggregation (unknown origin); design: species or system Homo sapiens
[15] = Oral bioavailability in diabetic neuropathy patient at 150 mg/day; assay type: ADME, organism-based; details: human, in vivo
Homo sapiens [16] = organism: Homo sapiens; assay: Induction of tau K19 (unknown origin) disaggregation assessed as disassembly-inducing half maxima
[17] = Binding affinity to tau K19 (unknown origin) assessed as dissociation constant by STD-NMR analysis; design: species or system Homo sapiens
[18] = Inhibition of tau K19 protein (unknown origin) aggregation by thioflavin S fluorescence assay; design: species or system Homo sapiens
Homo sapiens [19] = organism: Homo sapiens; assay: Induction of tau K19 (unknown origin) disaggregation assessed as decrease in paired helical filament formation measured disassembly-inducing half maxima by thioflavin S fluorescence assay
N2a [20] = assay: Inhibition of tau K18 deltaK280 mutant aggregation in mouse N2A cells at 10 uM measured over 5 days by thioflavin S fluorescence assay relative to control; assay type: cell-based
N2a [21] = assay: Cytotoxicity against mouse N2A cells at 10 uM after 24 hrs by LDH assay relative to control; assay type: cell-based
[22] = Terminal half life in rat at 100 mg, iv; assay type: ADME, organism-based; details: in vivo, read-out: beta t1/2 (converted)

T1 sequence (P10636 whole entry): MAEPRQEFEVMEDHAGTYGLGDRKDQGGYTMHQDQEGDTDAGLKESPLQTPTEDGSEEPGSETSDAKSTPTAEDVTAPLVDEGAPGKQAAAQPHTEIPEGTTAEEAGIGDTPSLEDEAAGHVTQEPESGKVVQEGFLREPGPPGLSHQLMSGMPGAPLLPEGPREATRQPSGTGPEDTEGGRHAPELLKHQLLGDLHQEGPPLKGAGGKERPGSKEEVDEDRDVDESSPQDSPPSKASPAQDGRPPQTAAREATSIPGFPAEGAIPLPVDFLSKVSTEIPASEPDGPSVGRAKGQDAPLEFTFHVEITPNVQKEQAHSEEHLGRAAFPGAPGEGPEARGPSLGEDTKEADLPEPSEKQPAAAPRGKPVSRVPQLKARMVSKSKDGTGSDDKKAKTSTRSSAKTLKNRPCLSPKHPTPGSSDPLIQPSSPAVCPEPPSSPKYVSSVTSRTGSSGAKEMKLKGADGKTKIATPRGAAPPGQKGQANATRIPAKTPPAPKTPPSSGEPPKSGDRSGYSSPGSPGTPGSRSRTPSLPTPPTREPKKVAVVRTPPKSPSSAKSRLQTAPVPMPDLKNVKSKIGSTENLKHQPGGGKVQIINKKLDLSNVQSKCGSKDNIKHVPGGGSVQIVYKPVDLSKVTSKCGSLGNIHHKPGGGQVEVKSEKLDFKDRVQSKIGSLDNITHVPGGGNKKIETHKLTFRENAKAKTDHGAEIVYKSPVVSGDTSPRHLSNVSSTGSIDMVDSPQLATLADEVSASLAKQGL
Amyloid-beta precursor protein, sequence (P05067 whole entry): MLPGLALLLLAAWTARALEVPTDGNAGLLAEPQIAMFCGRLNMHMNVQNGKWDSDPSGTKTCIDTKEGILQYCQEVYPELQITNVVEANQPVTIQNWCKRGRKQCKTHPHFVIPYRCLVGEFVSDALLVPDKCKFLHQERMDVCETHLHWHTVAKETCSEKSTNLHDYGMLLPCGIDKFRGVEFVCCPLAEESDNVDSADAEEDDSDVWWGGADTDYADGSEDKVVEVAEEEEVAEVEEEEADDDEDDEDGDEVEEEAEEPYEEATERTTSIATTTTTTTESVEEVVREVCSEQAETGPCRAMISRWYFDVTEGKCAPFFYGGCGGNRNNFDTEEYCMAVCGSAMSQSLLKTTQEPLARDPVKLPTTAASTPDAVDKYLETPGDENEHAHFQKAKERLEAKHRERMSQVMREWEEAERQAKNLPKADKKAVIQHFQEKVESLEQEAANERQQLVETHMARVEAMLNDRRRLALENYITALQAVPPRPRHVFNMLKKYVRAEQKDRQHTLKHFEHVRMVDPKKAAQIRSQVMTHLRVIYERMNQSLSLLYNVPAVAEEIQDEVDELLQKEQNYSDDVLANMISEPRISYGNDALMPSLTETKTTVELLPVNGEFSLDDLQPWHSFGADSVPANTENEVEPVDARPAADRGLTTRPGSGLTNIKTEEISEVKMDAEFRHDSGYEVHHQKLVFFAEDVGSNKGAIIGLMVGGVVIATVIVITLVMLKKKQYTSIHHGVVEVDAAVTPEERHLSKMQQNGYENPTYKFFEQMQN

Question: With `Nc1nc2ccc(OC(F)(F)F)cc2s1` [RILUZOLE] as the molecule, how does the Tmax [1] read?
Answer: 2 h

Question: For `C1=C2\Sc3ccccc3N2CCCCC[n+]2c(sc3ccccc32)/C=C/C=C2\Sc3ccccc3N2CCCCC[n+]2c(sc3ccccc32)/C=C/1`, which IC50 [2] is on record?
Answer: 0.08 µM

Question: For `CCOC(=O)c1nn(-c2ccccc2)c(=O)c2c(N)scc12`, which IC50 [3] is on record?
Answer: 6.3 µM

Question: For `O=C(O)COc1ccc(Nc2c([N+](=O)[O-])cc([N+](=O)[O-])c3cccnc23)cc1`, which IC50 [4] is on record?
Answer: < 15 µM

Question: For `O=C1c2ccc(O)c(O)c2C(=O)c2c(O)ccc(O)c21` [QUINALIZARIN], which Activity (Homo sapiens [5]) is on record?
Answer: 2.2 µM

Question: What about the IC50 [6] of the same molecule?
Answer: 1.1 µM

Question: For `COc1cccc2c1C(=O)c1c(O)c3c(c(O)c1C2=O)C[C@@](O)(C(=O)CO)C[C@@H]3O[C@H]1C[C@H](N)[C@H](O)[C@H](C)O1`, which Activity (Homo sapiens [5]) is on record?
Answer: 2.2 µM

Question: With `COc1cccc2c1C(=O)c1c(O)c3c(c(O)c1C2=O)C[C@@](O)(C(C)=O)C[C@@H]3O[C@H]1C[C@H](N)[C@H](O)[C@H](C)O1` [DAUNORUBICIN] as the molecule, how does the Activity (Homo sapiens [5]) read?
Answer: 2.2 µM

Question: What about the IC50 [6] of the same molecule?
Answer: 1.1 µM

Question: For `Oc1cc(O)c2c(c1)O[C@H](c1ccc(O)c(O)c1)[C@H](O)C2` [(-)-EPICATECHIN], which IC50 [7] is on record?
Answer: ≥ 200 µM

Question: What does the source list for `CCC(/C=C1\Sc2ccc(OC)cc2N1CCO)=C\c1sc2ccc(OC)cc2[n+]1CCO`?
Answer: IC50 [2]: 0.38 µM; IC50 [8]: 0.3 µM

Question: Which IC50 [9] does the source give for `Cc1cc2nc3ccc(N(C)C)cc3[s+]c2cc1N` [TOLONIUM CHLORIDE] here?
Answer: 0.069 µM

Question: Which IC50 [9] does the source give for `Nc1ccc2nc3ccc(N)cc3[s+]c2c1` here?
Answer: 0.069 µM

Question: With `COc1ccccc1OCCNCC(O)COc1cccc2[nH]c3ccccc3c12` (configuration not stated) [CARVEDILOL] as the molecule, how does the IC50 [10] read?
Answer: 30 µM

Question: What does the source list for `Cc1ccc(C(=O)N/N=C/c2ccc(O)c(O)c2O)cc1`?
Answer: IC50 [2]: 0.97 µM; Activity [11]: 1.1 µM

Question: With `O=C(O[C@@H]1Cc2c(O)cc(O)cc2O[C@@H]1c1cc(O)c(O)c(O)c1)c1cc(O)c(O)c(O)c1` [EPIGALOCATECHIN GALLATE] as the molecule, how does the Ratio IC50 (Homo sapiens [12]) read?
Answer: > 50

Question: What about the IC50 [13] of the same molecule?
Answer: > 200 µM

Question: And the IC50 [7]?
Answer: 1.8 µM

Question: And the IC50 [14]?
Answer: 3.9 µM

Question: Which Activity (Homo sapiens [5]) does the source give for `O=C(c1ccccc1)c1ccc(O)c(O)c1O` here?
Answer: 2.2 µM

Question: What about the IC50 [6] of the same molecule?
Answer: 1.1 µM

Question: With `CCOC(=O)c1nn(-c2ccc(OC)cc2)c(=O)c2c(N)scc12` as the molecule, how does the IC50 [3] read?
Answer: 5.1 µM

Question: Which bioavailability [15] does the source give for `CC(/C=C1\SC(=S)N(CC(=O)O)C1=O)=C\c1ccccc1` here?
Answer: 100%

Question: Which Activity (Homo sapiens [16]) does the source give for `O=C(NNc1nc(-c2ccc([N+](=O)[O-])cc2)cs1)c1ccc2[nH]cnc2c1` here?
Answer: 0.7 µM

Question: What about the Kd [17] of the same molecule?
Answer: 62 µM

Question: What about the IC50 [14] of the same molecule?
Answer: 1.6 µM

Question: For `O=C(O)CCN1C(=O)/C(=C/c2ccc(-c3cccc(Cl)c3)s2)SC1=S`, which IC50 [18] is on record?
Answer: 0.97 µM

Question: And the Activity (Homo sapiens [19])?
Answer: 0.77 µM

Question: With `Cc1nc(Nc2ccccc2C(=O)O)nc(Nc2ccccc2C(=O)O)c1[N+](=O)[O-]` as the molecule, how does the IC50 [4] read?
Answer: < 10 µM

Question: And the inhibition (N2a [20])?
Answer: 70%

Question: With `Cc1cc(O)c2c(c1)C(=O)c1cc(O)cc(O)c1C2=O` [EMODIN] as the molecule, how does the Activity (Homo sapiens [5]) read?
Answer: 2.2 µM

Question: And the IC50 [6]?
Answer: 1.1 µM

Question: With `O=C1/C(=C/c2ccc(-c3cccc(Cl)c3)o2)SC(=S)N1Cc1nc2ccccc2[nH]1` as the molecule, how does the Activity (N2a [21]) read?
Answer: 2%

Question: And the IC50 [18]?
Answer: 0.67 µM

Question: And the Activity (Homo sapiens [19])?
Answer: 0.94 µM

Question: Which IC50 [9] does the source give for `CN(C)c1ccc2nc3ccc(N)cc3[s+]c2c1` here?
Answer: 0.069 µM

Question: What about the IC50 [7] of the same molecule?
Answer: 2.6 µM

Question: For `O=C(O)CCN1C(=O)/C(=C/c2ccc(-c3cccc(Cl)c3)o2)SC1=S`, which IC50 [18] is on record?
Answer: 0.47 µM

Question: What about the Activity (Homo sapiens [19]) of the same molecule?
Answer: 0.3 µM

Question: Which half-life [22] does the source give for `CN(C)c1ccc2nc3ccc(N(C)C)cc3[s+]c2c1.[Cl-]` [METHYLENE BLUE ANHYDROUS] here?
Answer: 5 h
